Data on one compound can be found in patent US20070274916A1, “Method for Identifying Compounds that Affect Expression of Tryptophan Hydroxylase Isoform 2” (priority 2003, published 2007).

The structures appear in SMILES notation.

Test [1] is described as follows: Uterine weight of ovariectomized female mice. Type of test: in vivo, mouse. The settings on record: FIG. 12.
A further test concerns TPH1 mRNA. Kind of test: TPH1 message levels in ER-β knockout mice. The class given is in vivo, mouse. As for the experimental part:
Female mice (13 to 16 wks of age) were ovariectomized (C57BL/6s from Charles River; ER Knockout animals from Taconic). Animals were fed a soy-free rodent chow and allowed a minimum of one week to recuperate from surgery and shipping. Mice were dosed subcutaneously in the morning (once daily for 4 days) with 0.1 cc of vehicle (sesame oil) or compound (3, 10, or 20 mpk dexamethasone, RU486, estradiol, or prednisolone as indicated). Approximately six hours following the fourth dose, mice were deeply anesthetized with ketamine/xylazine and brains were removed from the skull, placed ventral side up in a mouse brain block on ice, and ice-cold razor blades were inserted into the block at 1 mm intervals. The caudal extent of the hypothalamus was used as an anatomical marker for the placement of the first razor blade, and 4 blades were placed in sequential slots, caudally. The four sections were examined and the two that encompassed the greatest extent of the dorsal raphe were placed in a tube containing RNALATER (Ambion, Austin, Tex.) and placed at 4° C. overnight. Brain slices were removed from RNALATER after 24 hours and stored at −80° C. in fresh tubes.

For `C[C@]12CC[C@@H]3c4ccc(O)cc4CC[C@H]3[C@@H]1CC[C@@H]2O` [17β-estradiol], in test [1], the “uterine weight measurements” value was “dramatically induced”. Moreover, the “effect on TPH1 message levels” value with TPH1 mRNA is reported as “no effect”.
